Test results published in patent US12077503B2, “Substituted cyclic amides and their use as herbicides” (FMC CORPORATION, priority 2015, dated 2024).
Read-outs that look alike come from different tables or passages of the source.

Columns and labels:
Assay type in all cases: in vivo
[1] = test system: pigweed (Amaranthus retroflexus); assay: Test A postemergence; conditions: Amaranthus retroflexus, post-emergence, 240 h, read-out: Plant response rating, Pigweed; for pest or weed control at 125 g/ha: 125 g ai/ha
Method in brief: (§1)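 In a loam soil and sand blend, planted seeds got a preemergence directed soil spray, and young plants at the one- to two-leaf stage, 2–10 cm high, got a postemergence application; ~10 d greenhouse hold; injury rated visually, 0 = none, 100 = complete control.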

Kochia (Kochia scoparia) = assay: Test A postemergence; conditions: Bassia scoparia, post-emergence, 240 h, read-out: Plant response rating, Kochia; for pest or weed control at 125 g/ha: 125 g ai/ha
Method in brief: as §1

[2] = test system: barnyardgrass (Echinochloa crus-galli); assay: Test A postemergence; conditions: Echinochloa crus-galli, post-emergence, 240 h, read-out: Plant response rating, Barnyardgrass; for pest or weed control at 125 g/ha: 125 g ai/ha
Method in brief: as §1

[3] = test system: ragweed (common ragweed, Ambrosia elatior); assay: Test A postemergence; conditions: Ambrosia artemisiifolia, post-emergence, 240 h, read-out: Plant response rating, Ragweed; for pest or weed control at 125 g/ha: 125 g ai/ha
Method in brief: as §1

[4] = test system: Galium (catchweed bedstraw, Galium aparine); assay: Test A postemergence; conditions: Galium, post-emergence, 240 h, read-out: Plant response rating, Galium; for pest or weed control at 125 g/ha: 125 g ai/ha
Method in brief: as §1

[5] = test system: blackgrass (Alopecurus myosuroides); assay: Test A postemergence; conditions: Alopecurus myosuroides, post-emergence, 240 h, read-out: Plant response rating, Blackgrass; for pest or weed control at 125 g/ha: 125 g ai/ha
Method in brief: as §1

[6] = test system: giant foxtail (Setaria faberii); assay: Test A postemergence; conditions: Setaria faberi, post-emergence, 240 h, read-out: Plant response rating, Foxtail, Giant; for pest or weed control at 125 g/ha: 125 g ai/ha
Method in brief: as §1

[7] = test system: wheat (Triticum aestivum); assay: Test A postemergence; conditions: Triticum aestivum, post-emergence, 240 h, read-out: Plant response rating, Wheat; for plant injury at 125 g/ha: 125 g ai/ha
Method in brief: as §1

[8] = test system: ryegrass, Italian (Italian ryegrass, Lolium multiflorum); assay: Test A postemergence; conditions: Lolium multiflorum, post-emergence, 240 h, read-out: Plant response rating, Ryegrass, Italian; for pest or weed control at 125 g/ha: 125 g ai/ha
Method in brief: as §1

corn (Zea mays) = assay: Test A postemergence; conditions: Zea mays, post-emergence, 240 h; for Corn plant response rating (crop injury, 0 = no effect, 100 = complete kill) at 125 g/ha: 125 g ai/ha
Method in brief: as §1

rice (Oryra sativa) = assay: Test B flooded paddy test; conditions: Oryza sativa, Flood, 250 g ai/ha
Method in brief: (§2)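 Plants at 2-leaf stage flooded to 3 cm above soil, with compounds applied directly to paddy water and that depth maintained. Plants kept in greenhouse 13–15 d. Visual rating versus controls on a 0 (no effect) to 100 (complete control) scale.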

[9] = test system: barnyardgrass (Echinochloa crus-galli); assay: Test B flooded paddy test; conditions: Echinochloa crus-galli, Flood, 250 g ai/ha
Method in brief: as §2

[10] = test system: ducksalad (Heteranthera limosa); assay: Test B flooded paddy test; conditions: Heteranthera limosa, Flood, 250 g ai/ha
Method in brief: as §2

[11] = test system: sedge, umbrella (small-flower umbrella sedge, Cyperus difformis); assay: Test B flooded paddy test; conditions: Cyperus difformis, Flood, 250 g ai/ha
Method in brief: as §2

[12] = postemergence, visual injury after approximately 10 d, 0 to 100 scale (0 no effect, 100 complete control)
[13] = scale of 0 to 100 where 0 is no effect and 100 is complete control, read-out: Rice plant response rating
[14] = scale of 0 to 100 where 0 is no effect and 100 is complete control, read-out: Barnyardgrass plant response rating
[15] = scale of 0 to 100 where 0 is no effect and 100 is complete control, read-out: Ducksalad plant response rating
[16] = scale of 0 to 100 where 0 is no effect and 100 is complete control, read-out: Sedge, Umbrella plant response rating
[17] = Postemergence, visual injury after approx. 10 d, 0 to 100 scale, 0 no effect, 100 complete control
[18] = Postemergence, 500 g ai/ha, visual injury, 0 to 100 scale (0 no effect, 100 complete control), approx. 10 d

## COc1cc([C@H]2CN(C)C(=O)[C@@H]2C(=O)Nc2ccccc2SC)ccc1C(F)(F)F [Compound 769]
[1]; [12]
  pest or weed control at 125 g/ha: 0%
Kochia (Kochia scoparia); [12]
  pest or weed control at 125 g/ha: 0%
[2]; [12]
  pest or weed control at 125 g/ha: 50%
[3]; [12]
  pest or weed control at 125 g/ha: 0%
[4]; [12]
  pest or weed control at 125 g/ha: 50%
[5]; [12]
  pest or weed control at 125 g/ha: 0%
[6]; [12]
  pest or weed control at 125 g/ha: 70%
[7]; [12]
  plant injury at 125 g/ha: 0%
[8]; [12]
  pest or weed control at 125 g/ha: 30%
Corn (Zea mays); [12]
  Corn plant response rating (crop injury, 0 = no effect, 100 = complete kill) at 125 g/ha: 0%
Rice (Oryra sativa); [13]
  pest or weed control at 250 g/ha: 15%
[9]; [14]
  pest or weed control at 250 g/ha: 0%
[10]; [15]
  pest or weed control at 250 g/ha: 80%
[11]; [16]
  pest or weed control at 250 g/ha: 0%

## O=C1NC[C@H](c2csc3ccccc23)[C@H]1C(=O)Nc1cccc(F)c1F [Compound 751]
[1]; [12]
  pest or weed control at 125 g/ha: 0%
Kochia (Kochia scoparia); [12]
  pest or weed control at 125 g/ha: 0%
[2]; [12]
  pest or weed control at 125 g/ha: 60%
[3]; [12]
  pest or weed control at 125 g/ha: 0%
[4]; [12]
  pest or weed control at 125 g/ha: 40%
[5]; [12]
  pest or weed control at 125 g/ha: 20%
[6]; [12]
  pest or weed control at 125 g/ha: 30%
[7]; [12]
  plant injury at 125 g/ha: 0%
[8]; [12]
  pest or weed control at 125 g/ha: 0%
Corn (Zea mays); [12]
  Corn plant response rating (crop injury, 0 = no effect, 100 = complete kill) at 125 g/ha: 0%
Rice (Oryra sativa); [13]
  pest or weed control at 250 g/ha: 30%
[9]; [14]
  pest or weed control at 250 g/ha: 40%
[10]; [15]
  pest or weed control at 250 g/ha: 100%
[11]; [16]
  pest or weed control at 250 g/ha: 0%

## O=C1NC[C@H](c2cccc(C(F)(F)F)n2)[C@H]1C(=O)Nc1cccc(F)c1F [Compound 1385]
[1]; [17]
  pest or weed control at 125 g/ha: 0%
[1]; [18]
  pest or weed control at 500 g/ha: 0%
Kochia (Kochia scoparia); [17]
  pest or weed control at 125 g/ha: 0%
Kochia (Kochia scoparia); [18]
  pest or weed control at 500 g/ha: 0%
[2]; [17]
  pest or weed control at 125 g/ha: 80%
[2]; [18]
  pest or weed control at 500 g/ha: 90%
[3]; [17]
  pest or weed control at 125 g/ha: 0%
[3]; [18]
  pest or weed control at 500 g/ha: 0%
[4]; [17]
  pest or weed control at 125 g/ha: 30%
[4]; [18]
  pest or weed control at 500 g/ha: 50%
[5]; [17]
  pest or weed control at 125 g/ha: 20%
[5]; [18]
  pest or weed control at 500 g/ha: 20%
[6]; [17]
  pest or weed control at 125 g/ha: 70%
[6]; [18]
  pest or weed control at 500 g/ha: 90%
[7]; [17]
  plant injury at 125 g/ha: 0%
[7]; [18]
  plant injury at 500 g/ha: 20%
[8]; [17]
  pest or weed control at 125 g/ha: 0%
[8]; [18]
  pest or weed control at 500 g/ha: 20%
Corn (Zea mays); [17]
  Corn plant response rating (crop injury, 0 = no effect, 100 = complete kill) at 125 g/ha: 0%
Corn (Zea mays); [18]
  Corn plant response rating (crop injury, 0 = no effect, 100 = complete kill) at 500 g/ha: 20%
Rice (Oryra sativa); 360 h, visually evaluated after 13 to 15 d, read-out: Plant response rating, Rice (0 to 100 scale where 0 is no effect and 100 is complete control)
  pest or weed control at 250 g/ha: 0%
[9]; 360 h, visually evaluated after 13 to 15 d, read-out: Plant response rating, Barnyardgrass (0 to 100 scale where 0 is no effect and 100 is complete control)
  pest or weed control at 250 g/ha: 0%
[10]; 360 h, visually evaluated after 13 to 15 d, read-out: Plant response rating, Ducksalad (0 to 100 scale where 0 is no effect and 100 is complete control)
  pest or weed control at 250 g/ha: 40%
[11]; 360 h, visually evaluated after 13 to 15 d, read-out: Plant response rating, Sedge, Umbrella (0 to 100 scale where 0 is no effect and 100 is complete control)
  pest or weed control at 250 g/ha: 0%
